Measured values reported in patent publication US20140005103A1, “SULFONAMIDE DERIVATIVES AND METHODS OF USE THEREOF FOR IMPROVING THE PHARMACOKINETICS OF A DRUG” (Merck, Sharp & Dohme Corp., priority 2012, published 2014).

Key:
[1] = target: T1, CYP1A2 (Homo sapiens, UniProt P05177); assay: Cocktail CYP assay, phenacetin O-deethylation; assay type: in vitro ADME; details: human liver microsomes, 10 μM phenacetin; test concentrations up to 10 μM
T1 construct: 0.1 mg/mL protein human liver microsomes (BD Gentest); tissue BD Gentest; host or cells: human liver microsomes
T1 sequence (P05177 1-516): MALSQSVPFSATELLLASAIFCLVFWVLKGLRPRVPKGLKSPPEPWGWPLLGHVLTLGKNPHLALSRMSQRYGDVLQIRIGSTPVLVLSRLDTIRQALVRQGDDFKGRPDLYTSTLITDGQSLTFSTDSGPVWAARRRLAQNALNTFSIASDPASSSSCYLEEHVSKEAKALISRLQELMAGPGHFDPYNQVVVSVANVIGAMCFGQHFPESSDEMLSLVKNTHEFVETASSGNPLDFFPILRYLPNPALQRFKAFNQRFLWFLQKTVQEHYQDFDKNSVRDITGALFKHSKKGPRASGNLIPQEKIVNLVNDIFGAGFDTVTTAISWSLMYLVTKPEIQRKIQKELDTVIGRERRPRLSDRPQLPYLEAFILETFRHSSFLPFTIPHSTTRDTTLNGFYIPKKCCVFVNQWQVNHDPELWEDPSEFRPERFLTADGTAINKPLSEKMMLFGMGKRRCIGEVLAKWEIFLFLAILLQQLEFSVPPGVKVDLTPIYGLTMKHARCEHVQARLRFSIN
Method: Determination of IC50 in a Cocktail Assay for CYPs 1A2, 2C9, 2C19, 2D6 and 3A4
This assay was performed in a standard 96-well plate design. IC50 values were calculated from the percent inhibition observed for each test compound at 6 concentrations (for example, 0.0032, 0.016, 0.08, 0.4, 2 and 10 μM). The incubation substrate mix contains 10 μM phenacetin (1A2), 5 μM diclofenac (2C9), 30 μM mephenyloin (2C19), 5 μM dextromethorphan (2D6) and 2 μM midazolam (3A4), 0.1 mg/mL protein human liver microsomes (BD Gentest), 1 mM NAPDH, 3.3 mM MgCl2 and 100 mM potassium phosphate buffer (pH 7.4). The production of the metabolite of each probe substrate was determined after incubation for 10 min at 37° C. Quantitation of the metabolite peak area ratio against an internal standard (tolbutamide) was determined by LC/MS/MS analysis following acetonitrile treatment of the incubations.
(§1) Samples were analyzed in the MRM mode with a SCIEX API-4000 mass spectrometer (Applied Biosystems, Foster City, Calif.), with a Shimadzu LC-20 AD pump (Shimadzu corporation, Kyoto, JP) and a CTC PAL autosampler (Agilent Technologies, Switzerland). A Phenomenex, Luna, 5 nm, 100 A, 2.00×30 mm HPLC column was used for the separation. The mobile phases were: (A) 0.1% formic acid in water and (B) 0.1% formic acid in acetonitrile. The binary gradient was as follows.
(§2) The peak area ratio of the analyte to the internal standard was used to quantify the metabolite. The values of peak area ratios in the presence of test compound were compared to those of maximum or minimum controls and were expressed as % inhibition by interpolating between the maximum and minimum peak area ratios. Incubations with no inhibitor were defined as the maxima.
(§3) The following equation was used to calculate the % inhibition:
(§4) [1−[(X−Low control)/(High control−Low control)]]*100
(§5) For the IC50 calculation, SigmaPlot was used to plot the mean % inhibition versus the test compound concentrations and for non-linear regression analysis of the data. Depending on the range of data points defining the inhibition curve, the data may have been fit to the 4-parameter logistic equation.

[2] = target: CYP3A4 (Homo sapiens, UniProt P08684); assay: IC50 vs CYP3A by inhibition of lopinavir metabolism in human liver microsomes; assay type: biochemical; details: pH 7.4, human liver microsomes, 1.5 μM lopinavir, 8 min at 37° C., test concentrations 0.098-100 nM, read-out: 3A4(LPV)
Method: Determination of IC50 vs CYP3A by Measurement of Inhibition of Lopinavir Metabolism
This assay was performed in a standard 96-well plate design. IC50 values were calculated from the percent inhibition observed for each test compound at 6 concentrations (for example, 0.098, 0.391, 1.56, 6.25, 25 and 100 nM). The incubation substrate mix contains 1.5 μM lopinavir, 0.01 mg/mL protein human liver microsomes (BD Gentest), 1 mM NAPDH, 3.3 mM MgCl2 and 100 mM potassium phosphate buffer (pH 7.4). The production of the sum of three hydroxylated metabolites (M2: 6-hydroxy lopinavir, M3: 4-hydroxy lopinavir, M4: 4-hydroxy lopinavir (epimer of M3), Kumar et al., 1999) was determined after incubation for 8 min at 37° C. Quantitation of the metabolite peak area ratio against an internal standard (tolbutamide) was determined by LC/MS/MS analysis following acetonitrile treatment of the incubations.
as §1, with “μm,” for “nm,”
as §2, with “maxima and with 5 μM ketoconazole were defined as the minima” for “maxima.”
as §3, §4, §5

Chain of CYP3A4 (P08684 2-503): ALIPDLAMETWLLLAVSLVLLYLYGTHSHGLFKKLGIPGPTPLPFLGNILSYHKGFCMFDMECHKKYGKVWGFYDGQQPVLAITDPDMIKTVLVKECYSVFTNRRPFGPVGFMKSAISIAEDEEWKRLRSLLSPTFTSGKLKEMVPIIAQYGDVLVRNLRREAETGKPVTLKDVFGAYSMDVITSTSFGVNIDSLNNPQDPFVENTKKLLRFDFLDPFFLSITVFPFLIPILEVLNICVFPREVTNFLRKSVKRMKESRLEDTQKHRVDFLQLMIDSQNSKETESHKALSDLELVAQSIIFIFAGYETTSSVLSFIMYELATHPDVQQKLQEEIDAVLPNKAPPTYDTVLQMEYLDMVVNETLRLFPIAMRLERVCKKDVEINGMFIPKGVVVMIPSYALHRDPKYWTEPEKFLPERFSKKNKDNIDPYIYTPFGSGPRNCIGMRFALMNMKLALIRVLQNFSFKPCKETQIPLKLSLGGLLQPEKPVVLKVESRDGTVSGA

C[C@H](c1ccc(F)cc1)n1cnnc1CN1CCN(S(=O)(=O)c2cnc(N3CCN4C[C@H](O)C[C@H]4C3)s2)CC1 [Compound 42]
IC50 [1]: > 10000 nM | IC50 at 8 min [2]: 32 nM

C[C@H](c1ccc(F)cc1)n1cncc1C1COCC2CN(S(=O)(=O)c3cnc(Nc4ccccn4)s3)CCN21 (stereo partly drawn) [Compound 40]
IC50 [1]: > 10000 nM | IC50 at 8 min [2]: 0.8 nM

C[C@H](c1ccc(F)cc1)n1cncc1CN1CCN(S(=O)(=O)c2cnc(N3CCNCC3)s2)CC1 [Compound 1]
IC50 [1]: > 10000 nM | IC50 at 8 min [2]: 1.4 nM

CC(c1cncn1[C@H](C)c1ccc(F)cc1)N1CCN(S(=O)(=O)c2cnc(N3CCN4C[C@H](O)C[C@H]4C3)s2)CC1 (stereo partly drawn) [Compound 37]
IC50 [1]: 5810 nM | IC50 at 8 min [2]: 4.1 nM

C[C@H](c1ccc(F)cc1)n1cncc1CN1CCN(S(=O)(=O)c2cnc(N3CCN4C[C@H](O)C[C@H]4C3=O)s2)CC1 [Compound 18]
IC50 [1]: > 10000 nM | IC50 at 8 min [2]: 1.1 nM

C[C@H](c1ccc(F)cc1)n1cncc1CN1CCN(S(=O)(=O)c2cncc(N3CCNCC3)c2)CC1 [Compound 29]
IC50 [1]: > 10000 nM | IC50 at 8 min [2]: 2.9 nM

CC1CN(c2ncc(S(=O)(=O)N3CCN(Cc4cncn4[C@H](C)c4ccc(F)cc4)CC3)s2)C[C@@H]2C[C@@H](O)CN12 (stereo partly drawn) [Compound 23]
IC50 [1]: > 10000 nM | IC50 at 8 min [2]: 1.6 nM

C[C@H](c1ccc(F)cc1)n1cncc1CN1CCN(S(=O)(=O)c2cnc(N3CCC4(CC3)CNC(=O)N4)s2)CC1 [Compound 3]
IC50 [1]: > 10000 nM | IC50 at 8 min [2]: 2.7 nM

C[C@H](c1ccc(F)cc1)n1cncc1CN1CCN(S(=O)(=O)c2cnc(N3CCN4C(=O)OC[C@H]4C3)s2)CC1 [Compound 26]
IC50 [1]: > 10000 nM | IC50 at 8 min [2]: 1.5 nM

C[C@H](c1ccc(F)cc1)n1cncc1CN1CCN(S(=O)(=O)c2cnc(N3CCC(S(C)(=O)=O)C3)s2)CC1 (stereo partly drawn) [Compound 8]
IC50 [1]: > 10000 nM | IC50 at 8 min [2]: 1.8 nM

C[C@H](c1ccc(F)cc1)n1cncc1CN1CCN(S(=O)(=O)c2cnc(N3CC(=O)N4C[C@H](O)C[C@H]4C3)s2)CC1 [Compound 16]
IC50 [1]: 1490 nM | IC50 at 8 min [2]: 5.2 nM

C[C@H](c1ccc(F)cc1)n1cncc1CN1CCN(S(=O)(=O)c2cnc(N3CCN4C[C@H](O)CC4(C)C3)s2)CC1 (stereo partly drawn) [Compound 24]
IC50 [1]: > 10000 nM | IC50 at 8 min [2]: 1.9 nM

C[C@H](c1ccc(F)cc1)n1cncc1CN1CCN(S(=O)(=O)c2cnc(N3CCN4C[C@H](O)C[C@@H]4C3)s2)CC1 [Compound 6]
IC50 [1]: > 10000 nM | IC50 at 8 min [2]: 1.4 nM

C[C@H](c1ccc(F)cc1)n1cncc1CN1CCN(S(=O)(=O)c2cnc(N3CCN4CCC(O)[C@H]4C3)s2)CC1 (stereo partly drawn) [Compound 27]
IC50 [1]: > 10000 nM | IC50 at 8 min [2]: 2.6 nM

C[C@H](c1ccc(C#N)cc1)n1cncc1CN1CCN(S(=O)(=O)c2cnc(Nc3ccc(C(F)(F)F)cn3)s2)CC1 [Compound 4]
IC50 [1]: > 10000 nM | IC50 at 8 min [2]: < 0.1 nM

C[C@H](c1ccc(F)cc1)n1cncc1CN1CCN(S(=O)(=O)c2cnc(N3CCN4C[C@H](O)C[C@H]4C3)s2)CC1 [Compound 5]
IC50 [1]: > 10000 nM | IC50 at 8 min [2]: 3.8 nM

CC1CN2C[C@H](O)C[C@H]2CN1c1ncc(S(=O)(=O)N2CCN(Cc3cncn3[C@H](C)c3ccc(F)cc3)CC2)s1 (single isomer, unassigned) [Compound 22]
IC50 [1]: 8660 nM | IC50 at 8 min [2]: 1.3 nM

C[C@H](c1ccc(F)cc1)n1cncc1CN1CCN(S(=O)(=O)c2cnc(N3CCC(N)(CO)CC3)s2)CC1 [Compound 25]
IC50 [1]: > 10000 nM | IC50 at 8 min [2]: 1.9 nM

C[C@H](c1ccc(F)cc1)n1cncc1CN1CCN(S(=O)(=O)c2cnc(NCC(F)CN)s2)CC1 (stereo partly drawn) [Compound 17]
IC50 [1]: 2190 nM | IC50 at 8 min [2]: 1.7 nM

Cc1ccc(C2(n3cncc3CN3CCN(S(=O)(=O)c4cnc(N5CCN(C)CC5)s4)CC3)CC2)nc1 [Compound 31]
IC50 [1]: > 10000 nM | IC50 at 8 min [2]: 4.4 nM

C[C@H](c1ccc(F)cc1)n1cncc1CN1CCN(S(=O)(=O)c2cnc(N3CCN(C4CCN(C)CC4)CC3)s2)CC1 [Compound 9]
IC50 [1]: > 10000 nM | IC50 at 8 min [2]: 2.8 nM

C[C@H](c1ccc(F)cc1)n1cncc1CN1CCN(S(=O)(=O)c2cnc(N3CCN(C)CC3)s2)CC1 [Compound 2]
IC50 [1]: > 10000 nM | IC50 at 8 min [2]: 1 nM

CN1CCN(c2ncc(S(=O)(=O)N3CCN(Cc4cncn4CCOc4ccc(F)cn4)CC3)s2)CC1 [Compound 33]
IC50 [1]: > 10000 nM | IC50 at 8 min [2]: 2.3 nM

CN1CCN(c2ncc(S(=O)(=O)N3CCN(Cc4cncn4CCOc4ccc(Cl)cc4)CC3)s2)CC1 [Compound 32]
IC50 [1]: > 10000 nM | IC50 at 8 min [2]: 1.2 nM

C[C@H](c1ccc(F)cc1)n1cncc1CN1CCN(S(=O)(=O)c2cnc(N3CCN4C[C@H](O)CC[C@H]4C3)s2)CC1 [Compound 19]
IC50 [1]: > 10000 nM | IC50 at 8 min [2]: 1.7 nM

C[C@H](c1ccc(F)cc1)n1cncc1C1C(=O)OCC2CN(S(=O)(=O)c3cnc(Nc4ccc(C(F)(F)F)cn4)s3)CCN21 (stereo partly drawn) [Compound 39]
IC50 [1]: 3730 nM | IC50 at 8 min [2]: 8 nM

C[C@H](c1ccc(F)cc1)n1cncc1CN1CCN(S(=O)(=O)c2cnc(N3CC[C@@H](N)[C@H](F)C3)s2)CC1 [Compound 11]
IC50 [1]: > 10000 nM | IC50 at 8 min [2]: < 0.98 nM

C[C@H](c1ccc(F)cc1)n1cncc1CN1CCN(S(=O)(=O)c2cnc(N3CC[C@@H]4NCCO[C@H]4C3)s2)CC1 [Compound 15]
IC50 [1]: > 10000 nM | IC50 at 8 min [2]: 1.2 nM

C[C@H](c1ccc(F)cc1)n1cncc1CN1CCN(S(=O)(=O)c2cnc(N3CCNCC3)cn2)CC1 [Compound 30]
IC50 [1]: > 10000 nM | IC50 at 8 min [2]: 3.6 nM

C[C@H](c1ccc(F)cc1)n1cncc1CN1CCN(S(=O)(=O)c2cnc(N3CC[C@@H](N4CCOCC4)[C@H](F)C3)s2)CC1 [Compound 20]
IC50 [1]: 2770 nM | IC50 at 8 min [2]: 4.1 nM

C[C@H](c1ccc(F)cc1)n1cncc1CN1CCN(S(=O)(=O)c2cnc(N3CCN4C[C@@H](CN)C[C@H]4C3)s2)CC1 [Compound 10]
IC50 [1]: > 10000 nM | IC50 at 8 min [2]: < 0.98 nM

C[C@H](c1ccc(F)cc1)n1cncc1CN1CCN(S(=O)(=O)c2cnc(N3C[C@@H]4C[C@@H](O)CN4C[C@@H]3C)s2)CC1 [Compound 21]
IC50 [1]: > 10000 nM | IC50 at 8 min [2]: 1.9 nM

C[C@H](c1ccc(F)cc1)n1cncc1CN1CCN(S(=O)(=O)c2ccc(N3CCNCC3)cn2)CC1 [Compound 28]
IC50 [1]: > 10000 nM | IC50 at 8 min [2]: 4.4 nM
